Consider one substance from US20220280507A1, “USES OF 5-METHYLTETRAHYDROFOLATE AND ITS COMPOSITION” (Lianyungang Jinkang Hexin Pharmaceutical Co., Ltd., priority 2019, published 2022).

Where two headings read alike, the source gives them in different places.

One assay has as its system mice after drinking. Particulars: n=10. The protocol:
Experiment 8 Tail Suspension Test and Swimming Test in Mice after Drinking
Clean-grade male Kunming mice, weighing 18-22 g, were chosen. The test was carried out at 23° C. with a humidity of 50%. The mice ate and drank freely, adapting to the environment for 5 days before the test. Then they were divided into 5 groups: model group, normal group, high-dose 5-MTHF-Ca group, medium-dose 5-MTHF-Ca group and low-dose 5-MTHF-Ca group (16 mg·Kg−1, 8mg·Kg−1, 4mg·Kg−1),
10 mice in each group. The model group was given (by gavage) Erguotou (batch number: 201603092, specification: 2L, place of origin: Beijing Shunxin Agriculture Co., Ltd.) at 18 ml·Kg−1, and calcium folate (Lianyungang Jinkang Hexin Pharmaceutical Co., Ltd.). The high-dose, medium-dose and low-dose groups were also given the solution containing Erguotou and calcium folate. The mice were tested after 24 h. The tail suspension test is carried out by fixing the tail of a mouse so that it is suspended head down in a state of desperately struggling to escape but unable to escape. After a period of time, record the immobility time of the mouse in a desperate state in this environment to observe the therapeutic effect after administration. The head of the mouse suspended upside down was 10 cm from the bottom of the box, and two mice were suspended at a time, which were separated by a partition to avoid collision. The mice were suspended for 10 min, and the accumulated immobility time of the suspended mice was counted within the latter 5 min. The results are as follows:
The mice were placed in a plastic swimming box with a length of 50 cm, a width of 40 cm and a height of 40 cm. The time was counted for 10 min after the mice were placed in the water. The accumulated immobility time of the mice with only slight limb movements and no struggling, and remaining afloat was recorded within the latter 5 min.

For another assay, the system named is TNF-α. In words: LPS-induced inflammatory response in astrocytes, TNF-α release (ELISA). In kind it is cell-based, Kunming mice. Particulars: culture supernatant, LPS 1 μg·ml-1 + substance 10 μg·ml-1, 24 h, n=6. From the text:
Experiment 9 Inhibition of 5-Methyltetrahydrofolate and Curcumin on LPS-Induced Inflammatory Response in Astrocytes
The cerebral cortex of Kunming mice at 1˜2 d was taken out under aseptic conditions, washed 3 times with cold PBS after removing residual meninges and blood vessels, prepared into single cell suspension by blowing, centrifuged, the supernatant was discarded, and the precipitant was resuspended in AST basic medium (high-sugar DMEM containing 10% FBS). The suspension was inoculated into a culture flask coated with poly-L-lysine (0.1 mg/ml), and cultured in a CO2 incubator. After 24 h, tissue debris and non-adherent cells were removed by replacing the medium. Afterwards, the medium was replaced every 3 days until the cells reached 80% confluence, then the flask was placed on a constant temperature rotary shaker, where the suspension was centrifuged at 180 r/min, 37° C. for 18 h to remove oligodendrocytes and microglia from the upper layer. Then trypsin digestion was used for subculture. […]
LPS (1 μg·ml-1), LPS (1 μg·ml-1)+curcumin (10 μg·ml-1), LPS (1 μg·ml-1)+5-MTHF-Ca (10 μg·ml-1); experimental group: LPS (1 μg·ml-1)+curcumin (5 μg·ml-1)+5-MTHF-Ca (5 μg·ml-1). After 24 h, the culture supernatant was collected, and the cytokines IL-6, IL-1β and TNF-α were detected by ELISA.

Assay [1] has as its system alcoholic liver damage and fatty liver. In words: Alcoholic fatty liver model, serum TG, TC, SOD, MDA and liver histopathology. In kind it is in vivo, SD rats. Particulars: for MDA / SOD: day 61, liquor model; for MDA / SOD / TC / TG: n=16; for Pathological examination of liver: liquor model; for TC / TG: serum day 61, liquor model. The protocol: 96 SPF-grade SD rats were chosen in half female and half male with an average weight of 176-220 g at the beginning of the experiment. According to their weight, they were randomly divided into vehicle control group (purified water, ig), model control group (liquor, 10 ml·Kg−1), positive control group (bicyclol, 50 mg·Kg−1, ig), folic acid calcium salt high-dose group (4 mg·Kg−1), folic acid calcium salt medium-dose group (2 mg·Kg−1), folic acid calcium salt low-dose group (1 mg·Kg−1), in half female and half male, and 16 rats in each group. Purified water was used as a negative control, and bicyclol (place of origin: Beijing Xiehe Pharmaceutical Factory, specification: 25 mg/tablet, batch number: H20040467) was used as a positive control drug. Route of administration: all were administered by oral gavage. Dosage of administration: 1 mg·Kg−1, 2 mg·Kg−1, and 4 mg·Kg−1. Frequency of administration: once a day for 60 consecutive days. Erguotou (batch number: 201603092, specification: 2L, place of origin: Beijing Shunxin Agriculture Co., Ltd.) model establishing method: gavage with diluted 56-degree Erguotou twice a day for 60 consecutive days.
Method of administration: administration started at prescribed doses on the day of modeling for 60 consecutive days and ended at the 60th day. At the same time, rats in each group were weighed every other week during administration period to monitor their body weight changes. On the 61st day, rats were dissected and serum was collected for determination of triglyceride (TG), total cholesterol (TC), malondialdehyde (MDA), superoxide dismutase (SOD) and liver histopathologic examination. The brain tissue of rats was taken out, and hippocampus tissue was separated on ice plate, prepared to homogenate with a mass fraction of 10% with purified water, then the homogenate was centrifuged to obtain supernatant. ELISA was used to detect the levels of inflammatory factors TNF-α and IL-1β in hippocampus tissue with continuous spectrum scanning microplate reader.

5-methyltetrahydrofolate calcium: the Swimming immobility time is 104.64 ± 5.24 S with mice after drinking (high dose 16 mg·Kg−1 with Erguotou 18 ml·Kg−1, tested after 24 h); 123.56 ± 3.64 S in the assay with mice after drinking (low dose 4 mg·Kg−1 with Erguotou 18 ml·Kg−1, tested after 24 h); 110.42 ± 2.64 S with mice after drinking (medium dose 8 mg·Kg−1 with Erguotou 18 ml·Kg−1, tested after 24 h). Besides, the TNF-α in the assay with TNF-α came out at 489.21 ± 10.71 pg/mL. Also, the MDA in assay [1] (1 mg·kg−1·d−1 ig 60 d) is 45.20 ± 8.17 nmol/mgprot; in assay [1] (2 mg·kg−1·d−1 ig 60 d), 42.17 ± 8.65 nmol/mgprot; in assay [1] (4 mg·kg−1·d−1 ig 60 d) it was 47.96 ± 10.28 nmol/mgprot. The SOD is given as 253.20 ± 24.66 U/mgprot in assay [1] (1 mg·kg−1·d−1 ig 60 d), 257.41 ± 31.28 U/mgprot in assay [1] (2 mg·kg−1·d−1 ig 60 d) and 248.87 ± 34.64 U/mgprot in assay [1] (4 mg·kg−1·d−1 ig 60 d). In addition, the “Pathological examination of liver” value in assay [1] (high-dose group 4 mg·Kg−1 ig 60 d) was “no hyperplasia of interstitial connective tissue and fatty degeneration of hepatocytes”; in assay [1] (low-dose group 1 mg·Kg−1 ig 60 d) it was “a few fatty vacuoles in hepatocytes, and no obvious hyperplasia of interstitial connective tissue”; in assay [1] (medium-dose group 2 mg·Kg−1 ig 60 d) it was “no hyperplasia of interstitial connective tissue and fatty degeneration of hepatocytes”. Moreover, the TC in assay [1] (1 mg·kg−1·d−1 ig 60 d) is recorded as 1.42 ± 0.36 mmol/L; in assay [1] (2 mg·kg−1·d−1 ig 60 d), 1.50 ± 0.37 mmol/L; in assay [1] (4 mg·kg−1·d−1 ig 60 d), 1.47 ± 0.44 mmol/L. Also, the TG in assay [1] (1 mg·kg−1·d−1 ig 60 d) was 1.08 ± 0.34 mmol/L; in assay [1] (2 mg·kg−1·d−1 ig 60 d), 1.03 ± 0.50 mmol/L; in assay [1] (4 mg·kg−1·d−1 ig 60 d), 1.04 ± 0.43 mmol/L.
